In US11447500B2, “Thienopyridine derivatives and pharmaceutical composition comprising same” (WELLMARKER BIO CO., LTD., priority 2018, dated 2022):

Columns and labels:
RON kinase = molecular target: T1, RON kinase (Homo sapiens, UniProt Q04912); test: RON kinase enzyme inhibitory activity, FRET (TR-FRET) technique; type: biochemical; details: 60 min reaction
T1 construct: purchased Carna Bioscience
Method: The enzyme inhibitory activity (IC50) of the thienopyridine derivative was measured using FRET (fluorescence resonance energy transfer) technique. RON kinase (Carna Bioscience) was diluted with a kinase assay buffer (50 mM HEPES pH 7.5, 1 mM EGTA, 10 mM MgCl2, 2 mM DTT, and 0.01% Tween-20) to a concentration of 2× (0.4 nM) the final reaction concentration and the dilution was added to a 384-well plate at 5 μL/well. As sample compounds, the compounds synthesized in the examples of the present invention and the compounds of the comparative examples were used. The sample compounds were respectively dissolved in 100% DMSO to obtain 1 mM stock solutions, which were then subjected to eight 10-fold serial dilutions. The sample compounds were diluted with the kinase assay buffer to a concentration of 4× the final reaction concentration, and the dilutions were added to the 384-well plate at 2.5 μL/well. The plate was incubated at room temperature for 15 minutes. Next, 0.25 M ATP solution (Sigma Aldrich) was diluted with the kinase reaction buffer to a concentration of 4× (60 μM) the final reaction concentration, and a tyrosine peptide substrate (Perkin-Elmer) was diluted therein to a concentration of 4× (400 nM) the final reaction concentration. The dilution was added to the 384-well plate at 2.5 μL/well. Then, the 384-well plate was incubated at room temperature and the reaction was allowed to proceed for 60 minutes. After 60 minutes, EDTA (Sigma Aldrich) was diluted with TR-FRET detection buffer (Perkin-Elmer) to a concentration of 4× (40 mM) the final reaction concentration. A europium-labeled anti-phosphotyrosine antibody (Perkin-Elmer) was diluted in the above EDTA dilution to a concentration of 4× (8 nM) the final reaction concentration to prepare a stop solution of the RON kinase reaction. The stop solution was added to the 384-well plate at 10 μL/well to terminate the reaction, and the plate was incubated at room temperature for 60 minutes. Thereafter, the plate was read on Victor X5 plate reader (Perkin-Elmer). At this time, the excitation wavelength was 340 nm and the emission wavelengths were 620 nm and 665 nm. The IC50 values of the sample compounds were determined using GraphPad Prism™ 5 by expressing the emission energy at 665 nm as a function of the sample compound concentration.

[1] = test system: RON-mutated (Δ160) HT-29 colon cancer cell line; test: Cell killing efficacy, trypan blue exclusion assay, HT-29; type: cell-based; details: HT29 cell, 48 hours
Method: (§1) Two colon cancer cell lines, RON-activated KM12C (80015, KCLB, MEM+10% FBS) and RON-mutated (Δ160) HT-29 (30038, KCLB, RPMI+10% FBS) were prepared in 6-well plates at 5×10^4 cells/well, respectively. After 24 hours, while freshly changing the medium, the sample compounds were added to the wells at a concentration of 1 μM or 5 μM and the plates were allowed to stand for 48 hours.
(§2) As the sample compounds, the compounds synthesized in the examples of the present invention and the compounds of the comparative examples were used.
(§3) After 48 hours, the cell suspensions were collected and centrifuged (1,500 rpm, 4 min.) to obtain the cells, and live cells and dead cells were quantitated (n=2) through a trypan blue (15250-061, Gibco) exclusion assay. The statistical analysis was performed using Excel™ T-test from Microsoft.
(§4) The cell death rates of the compounds of Examples and Comparative Examples were respectively measured and the results are shown in Table 4 as relative ratios to Comparative Example 1.

KM12C cells = test: Cytotoxicity MTS assay, KM12C; type: cell-based; details: Homo sapiens, 72 hours
Method: (§5) In order to confirm the specific cytotoxicity of the drugs, the cultured cells were treated with 0.05% trypsin/EDTA (0.5% trypsin EDTA (10×), Product No.: 15400-054, GIBCO) to detach them from the culture dish, and 3,000 cells (KM12C) or 2,000 cells (HT29, Colo 320 HSR) were dispensed into each well.
(§6) After 24 hours, sample compounds were dissolved in DMSO (Product No.: D8418-250ML, SIGMA) to make 10 mM stock solutions. As the sample compounds, the compounds synthesized in the examples of the present invention and the compounds of the comparative examples were used.
(§7) The cells were treated with the sample compound dilutions, and cultured in a 5% CO2 incubator at 37° C. for 72 hours.
(§8) Thereafter, 20 μL of MTS solution (CellTiter™ 96 Aqueous One Solution Cell Proliferation Assay, Product No.: G3581, Promega) was dispensed into each well and mixed well, and the cells were incubated for 1 to 4 hours at 37° C. in a 5% CO2 incubator.

HT29 cells = test: Cytotoxicity MTS assay, HT29; type: cell-based; details: Homo sapiens, HT-29, 72 hours
Method: as §5, §6, §7, §8

[2] = test system: RON-activated KM12C colon cancer cell line; test: Cell killing efficacy, trypan blue exclusion assay, KM12C; type: cell-based; details: 48 hours
Method: as §1, §2, §3, §4

T1 sequence (Q04912 25-1400): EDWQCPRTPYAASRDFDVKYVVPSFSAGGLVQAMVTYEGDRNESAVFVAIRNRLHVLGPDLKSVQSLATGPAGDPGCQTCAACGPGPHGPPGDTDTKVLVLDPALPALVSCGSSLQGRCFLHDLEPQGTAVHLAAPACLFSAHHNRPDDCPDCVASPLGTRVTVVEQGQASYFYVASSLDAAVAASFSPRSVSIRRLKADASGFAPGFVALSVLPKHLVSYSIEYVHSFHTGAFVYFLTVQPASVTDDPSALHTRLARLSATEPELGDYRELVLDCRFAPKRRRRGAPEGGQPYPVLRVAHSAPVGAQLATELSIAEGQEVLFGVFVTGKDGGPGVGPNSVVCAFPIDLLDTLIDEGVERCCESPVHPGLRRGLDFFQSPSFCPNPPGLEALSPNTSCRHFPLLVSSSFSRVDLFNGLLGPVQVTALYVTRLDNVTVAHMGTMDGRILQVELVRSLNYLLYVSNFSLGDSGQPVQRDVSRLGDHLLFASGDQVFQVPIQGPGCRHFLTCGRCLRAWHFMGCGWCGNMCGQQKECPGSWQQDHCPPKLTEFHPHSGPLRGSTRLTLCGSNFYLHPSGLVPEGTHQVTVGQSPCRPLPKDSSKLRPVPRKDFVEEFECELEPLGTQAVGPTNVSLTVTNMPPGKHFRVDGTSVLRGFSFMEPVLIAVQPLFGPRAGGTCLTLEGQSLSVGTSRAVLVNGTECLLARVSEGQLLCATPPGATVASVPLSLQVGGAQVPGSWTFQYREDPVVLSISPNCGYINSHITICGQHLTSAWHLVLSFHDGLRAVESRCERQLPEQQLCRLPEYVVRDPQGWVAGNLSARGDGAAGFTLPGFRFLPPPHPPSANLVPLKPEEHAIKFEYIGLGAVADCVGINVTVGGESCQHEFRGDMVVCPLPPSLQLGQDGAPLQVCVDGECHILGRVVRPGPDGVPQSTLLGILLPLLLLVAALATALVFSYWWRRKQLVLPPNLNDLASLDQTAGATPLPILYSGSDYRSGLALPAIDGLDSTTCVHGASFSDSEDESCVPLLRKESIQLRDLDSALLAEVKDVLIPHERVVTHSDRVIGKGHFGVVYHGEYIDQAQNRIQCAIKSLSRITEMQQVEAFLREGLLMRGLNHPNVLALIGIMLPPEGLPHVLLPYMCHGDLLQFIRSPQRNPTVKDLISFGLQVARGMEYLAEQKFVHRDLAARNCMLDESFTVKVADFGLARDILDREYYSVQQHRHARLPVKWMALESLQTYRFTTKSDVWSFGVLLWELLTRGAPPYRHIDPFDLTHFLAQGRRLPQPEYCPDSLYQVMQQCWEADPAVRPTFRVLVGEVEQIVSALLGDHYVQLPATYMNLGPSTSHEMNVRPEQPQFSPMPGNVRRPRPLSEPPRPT

Row | SMILES | IC50 (RON kinase) [nM] | Cell death rate (Relative to Comp. Ex. 1) ([1]; 1 μM) | Cell death rate (Relative to Comp. Ex. 1) ([1]; 5 μM) | IC50 (KM12C cells) [nM] | IC50 (HT29 cells) [nM] | Cell death rate (Relative to Comp. Ex. 1) ([2]; 1 μM) | Cell death rate (Relative to Comp. Ex. 1) ([2]; 5 μM)
1 | Cc1ccc(C(=O)Nc2ccc(Oc3cc4cnn(C)c4cc3-c3cn[nH]c3)c(F)c2)c(=O)n1-c1ccc(F)cc1 [Comp. Ex. 3, N-(3-fluoro-4-(1-methyl-6-(1H-pyrazol-4-yl)-1H-indazol-5-yloxy)phenyl)-1-(4-fluorophenyl)-6-methyl-2-oxo-1,2-dihydropyridine-3-carboxamide, reference compound] | 3.74 | x 0.83 | x 0.52 | 117 | 10800 | x 0.54 | x 0.33
2 | CCOc1ccn(-c2ccccc2)c(=O)c1C(=O)Nc1ccc(Oc2ccnc3cc(-c4ccc(CNCCOC)cn4)sc23)c(F)c1.Cl [Example 1, 4-ethoxy-N-(3-fluoro-4-{[2-(5-{[(2-methoxyethyl)amino]methyl}pyridin-2-yl)thieno[3,2-b]pyridin-7-yl]oxy}phenyl)-2-oxo-1-phenyl-1,2-dihydropyridine-3-carboxamide hydrochloride] | 0.51 | x 4.06 | x 2.41 | 45 | 1100 | x 3.37 | x 2.47
3 | CCOc1ccn(-c2cccc(F)c2)c(=O)c1C(=O)Nc1ccc(Oc2ccnc3cc(-c4ccc(CNCCOC)cn4)sc23)c(F)c1.Cl [Example 14, 4-ethoxy-N-(3-fluoro-4-{[2-(5-{[(2-methoxyethyl)amino]methyl}pyridin-2-yl)thieno[3,2-b]pyridin-7-yl]oxy}phenyl)-1-(3-fluorophenyl)-2-oxo-1,2-dihydropyridine-3-carboxamide Hydrochloride] | 0.45 | x 1.59 | x 3.81 | 63 | 668 | x 1.58 | x 1.43
4 | COCCNCc1ccc(-c2cc3nccc(Oc4ccc(NC(=O)c5ccnn(-c6ccc(F)cc6)c5=O)cc4F)c3s2)nc1.Cl [Example 20, N-(3-fluoro-4-[{2-(5-[{(2-methoxyethyl)amino}methyl]pyridin-2-yl)thieno[3,2-b]pyridin-7-yl}oxy]phenyl)-2-(4-fluorophenyl)-3-oxo-2,3-dihydropyridazine-4-carboxamide Hydrochloride] | 2.47 | x 0.75 | x 1.13 | 10 | > 10000 | x 1.07 | x 1.11
5 | COCCNCc1ccc(-c2cc3nccc(Oc4ccc(NC(=O)c5ccc(C)n(-c6ccccc6)c5=O)cc4F)c3s2)nc1.Cl [Example 21, N-(3-fluoro-4-{[2-(5-{[(2-methoxyethyl)amino]methyl}pyridin-2-yl)thieno[3,2-b]pyridin-7-yl]oxy}phenyl)-6-methyl-2-oxo-1-phenyl-1,2-dihydropyridine-3-carboxamide Hydrochloride] | 0.56 | x 1.30 | x 4.10 | 1500 | 1300 | x 0.93 | x 4.06
6 | COCCNCc1ccc(-c2cc3nccc(Oc4ccc(NC(=O)c5ccc(C)n(-c6ccc(F)cc6)c5=O)cc4F)c3s2)nc1.Cl [Example 22, N-(3-fluoro-4-{[2-(5-{[(2-methoxyethyl)amino]methyl}pyridin-2-yl)thieno[3,2-b]pyridin-7-yl]oxy}phenyl)-1-(4-fluorophenyl)-6-methyl-2-oxo-1,2-dihydropyridine-3-carboxamide Hydrochloride] | 0.44 | x 1.07 | x 1.71 | 1 | 1180 | x 1.48 | x 1.61
7 | COCCNCc1ccc(-c2cc3nccc(Oc4ccc(NC(=O)c5c(C)ccn(-c6ccc(F)cc6)c5=O)cc4F)c3s2)nc1.Cl [Example 25, N-(3-fluoro-4-{[2-(5-{[(2-methoxyethyl)amino]methyl}pyridin-2-yl)thieno[3,2-b]pyridin-7-yl]oxy}phenyl)-1-(4-fluorophenyl)-4-methyl-2-oxo-1,2-dihydropyridine-3-carboxamide Hydrochloride] | 0.23 | x 3.13 | x 2.97 | 25 | 1380 | x 0.44 | x 0.69
8 | COCCNCc1ccc(-c2cc3nccc(Oc4ccc(NC(=O)c5c(C)ccn(-c6ccccc6)c5=O)cc4F)c3s2)nc1.Cl [Example 28, N-(3-fluoro-4-{[-2-(5-{[(2-methoxyethyl)amino]methyl}pyridin-2-yl)thieno[3,2-b]pyridin-7-yl]oxy}phenyl)-4-methyl-2-oxo-1-phenyl-1,2-dihydropyridine-3-carboxamide Hydrochloride] | 0.56 | x 1.46 | x 2.65 | 59 | 908 | x 1.22 | x 1.58
9 | CCOc1ccn(-c2ccc(F)cc2)c(=O)c1C(=O)Nc1ccc(Oc2ccnc3cc(-c4ccc(CN5CCOCC5)cn4)sc23)c(F)c1.Cl [Example 31, 4-ethoxy-N-[3-fluoro-4-({2-[5-(morpholinomethyl)pyridin-2-yl]thieno[3,2-b]pyridin-7-yl}oxy)phenyl]-1-(4-fluorophenyl)-2-oxo-1,2-dihydropyridine-3-carboxamide Hydrochloride] | 0.39 | x 2.11 | x 1.21 | 7 | 609 | x 1.52 | x 1.17
10 | CCOc1ccn(-c2ccccc2)c(=O)c1C(=O)Nc1ccc(Oc2ccnc3cc(-c4ccc(CN5CCOCC5)cn4)sc23)c(F)c1.Cl [Example 32, 4-ethoxy-N-[3-fluoro-4-({2-[5-(morpholinomethyl)pyridin-2-yl]thieno[3,2-b]pyridin-7-yl}oxy)phenyl]-2-oxo-1-phenyl-1,2-dihydropyridine-3-carboxamide Hydrochloride] | 0.81 | x 1.55 | x 1.45 | 3 | 325 | x 1.52 | x 1.11
